Experimental data from publication PMC6801819, “Exogenous Iron Increases Fasciocidal Activity and Hepatocellular Toxicity of the Synthetic Endoperoxides OZ78 and MT04” (International Journal of Molecular Sciences, 2019).

What was measured:
[1] = system: HepG2 cells; assay: Cellular ATP content (CellTiter-Glo); type: cell-based, human
Description: (§1) Stock solutions of the drugs tested were prepared in DMSO 100% (v/v).
(§2) In viability assays, HepG2 cells were treated with 0.1% Triton-X or 0.1% DMSO for positive or negative control, respectively.
To assess cellular ATP content, HepG2 cells were seeded in white-wall 96-well plates with a clear bottom (Nunc). One day after seeding, cells were treated with the respective drugs. […] Luminescence was measured using Tecan M200 Infinite Pro.

[2] = system: adult F. hepatica; assay: In vitro/ex vivo adult worm viability assay; type: cell-based, Fasciola hepatica; settings: iron or hemin with 1% DMSO, no drug, 48 h or 72 h
Description: The experiments were performed, as described previously. Adult F. hepatica were collected from bovine liver bile ducts obtained from the local slaughterhouse (Basel, Switzerland). After careful washing, a single adult worm was placed per well (6-well plate, Costar, MA, USA) containing 5.4 mL RPMI 1640 (Gibco, N.Y., USA), supplemented with 1% (v/v) antibiotics (50 µg/mL streptomycin and 50 U/mL penicillin), 1% (v/v) drug solution, […] Control worms were incubated in 1% (v/v) DMSO combined with iron or hemin. Experiments were conducted in triplicates and repeated once. Cultures were kept at 37 °C in an atmosphere of 5% CO2. The viabilities of treated and untreated worms were monitored at 0, 24, 48, and 72 h. Worms were examined by eye and/or using a dissecting microscope (20× lenses). The viability of adult flukes was scored using the following scale: 4: normal activity; movements were visible without a microscope, 3: reduced activities, 2: very weak activities detected only using microscopic magnification, and 1: death of worm (no movement observed for two min using a microscope).

[3] = system: HepG2 cells; assay: Cellular reactive oxygen species (DCF-DA); type: cell-based, human
Description: Stock solutions of the drugs tested were prepared in DMSO 100% (v/v). […] LC-MS measurements confirmed the stability of the compounds (data not shown). Treatments with AS, MT04, or OZ78 (100 or 500 µM) were performed either alone or in combination with 8% (v/v) hemin or FeCl2 solution for 24 h. The final iron concentration used was 122 µM (stock 1.5 mM) based on previous in vitro studies with F. hepatica. Dichlorodihydrofluorescein diacetate (DCF-DA) dissolved in DMSO was used to assess cellular formation of reactive oxygen species (ROS). HepG2 cells were seeded in a black-wall 96 well plate with a clear bottom as described above. Briefly, 30 min before treatment started, DCF-DA was added to the cells at a final concentration of 25 µM. DCF-DA was removed completely before the drugs were added. ROS was measured after 90 min and 24 h of drug exposure using a Tecan M200 Infinite Pro (excitation 485 nm, emission 535 nm).

[4] = system: HepG2 cells; assay: Adenylate kinase leakage (membrane integrity test); type: cell-based, human
Description: as §1, §2
The assay was used according to the protocol supplied by the manufacturer.

Row | Compound | impact on cellular ATP content [1] | viability of adult F. hepatica [2] | increase in ROS compared to DMSO, factor [3] | cytotoxicity (AK release) [4]
1 | hemin [reference compound] | no impact on cellular ATP content | slight reduction in viability | – | –
2 | [Cl][Fe][Cl] [Fe^2+, Fe(II)chloride] | no impact on cellular ATP content | slight reduction in viability | did not trigger ROS production | not cytotoxic
